Reference: patent US20220362165A1, “TETRABENAZINE TRANSDERMAL DELIVERY DEVICE” (SHINKEI THERAPEUTICS LLC, priority 2019, published 2022)

Test: clinical
Details: male, human, in vivo
Procedure: This was an open-label, randomized, two-treatment, two-period, two-sequence, crossover study under fasted conditions comparing the test and reference products. The study was conducted with 16 healthy, non-tobacco-, non-nicotine-using, adult male subjects. In one period of the study, one (1) TBZ patch, 8 mg/96 hr was applied to the subject's upper outer left arm and kept in place for 96 hours following an overnight fast of at least 10 hours. In the other study period, 1×12.5 mg Tetrabenazine Tablet (Lupin) was administered every 8 hours from Day 1 through Day 4 for a total daily dose of 37.5 mg and a total dose of 150 mg for the 12 doses over the 4 days. […]
Blood samples were collected pre-dose and at intervals over 120 hours after dosing (0-hour) with the study drug in each study period. Samples were analyzed by the bioanalytical laboratory for those subjects who were dosed with at least one of the study products (Treatment A or B).
The plasma concentrations of TBZ (RR and SS isomers) and its active metabolites (RRR, SSS, SRR and RSS) were measured by a fully validated analytical procedure. […]
The plasma concentrations of TBZ (RR and SS isomers) and its HTBZ metabolites (RRR, SSS, SRR and RSS) were measured by a fully validated analytical procedure for those subjects who were dosed with at least one of the study products (Treatment A or B).

half-life: ~8.5 h
SMILES: COc1cc2c(cc1OC)[C@H]1CC(=O)[C@H](CC(C)C)CN1CC2 [R,R-tetrabenazine, (3R,11bR)-1,3,4,6,7,11b-Hexahydro-9,10-dimethoxy-3-(2-methylpropyl)-2H-benzo[a]quinolizin-2-one]
